Reference: ChEMBL document CHEMBL3769367, “Orexin Receptor Antagonists: New Therapeutic Agents for the Treatment of Insomnia” (J Med Chem, 2016)
Each block holds one compound with its values, some of them ahead of it.

Experiments:
[1] = molecular target: T1, Orexin/Hypocretin receptor type 1 (Homo sapiens, UniProt O43613); assay: Binding affinity to OX1R (unknown origin)
T1 sequence (O43613 whole entry): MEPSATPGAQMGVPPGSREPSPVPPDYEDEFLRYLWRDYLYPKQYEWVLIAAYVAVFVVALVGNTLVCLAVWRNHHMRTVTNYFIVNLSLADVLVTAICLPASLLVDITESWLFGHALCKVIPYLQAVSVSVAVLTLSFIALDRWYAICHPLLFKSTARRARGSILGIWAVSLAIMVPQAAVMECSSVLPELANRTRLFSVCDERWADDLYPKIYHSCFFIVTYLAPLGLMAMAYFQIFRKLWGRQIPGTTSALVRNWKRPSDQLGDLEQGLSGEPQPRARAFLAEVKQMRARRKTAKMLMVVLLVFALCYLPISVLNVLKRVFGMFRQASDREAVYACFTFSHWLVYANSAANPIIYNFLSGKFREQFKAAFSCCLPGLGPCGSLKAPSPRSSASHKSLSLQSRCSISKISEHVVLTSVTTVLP

Orexin receptor type 2 [2] = molecular target: T2, Orexin receptor type 2 (Homo sapiens, UniProt O43614); assay: Binding affinity to OX2R (unknown origin)
T2 sequence (O43614 whole entry): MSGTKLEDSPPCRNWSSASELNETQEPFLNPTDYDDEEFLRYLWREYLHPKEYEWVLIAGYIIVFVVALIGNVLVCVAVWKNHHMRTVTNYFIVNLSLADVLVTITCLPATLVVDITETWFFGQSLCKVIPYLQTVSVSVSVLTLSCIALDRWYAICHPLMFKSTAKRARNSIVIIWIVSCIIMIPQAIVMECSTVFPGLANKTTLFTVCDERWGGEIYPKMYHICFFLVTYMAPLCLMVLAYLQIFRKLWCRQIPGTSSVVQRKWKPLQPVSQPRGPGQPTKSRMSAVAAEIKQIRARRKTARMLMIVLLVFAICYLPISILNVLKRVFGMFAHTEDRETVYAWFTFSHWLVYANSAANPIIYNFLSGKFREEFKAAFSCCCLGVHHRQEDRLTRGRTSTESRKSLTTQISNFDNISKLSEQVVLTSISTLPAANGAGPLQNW

[3] = molecular target: T1, Orexin/Hypocretin receptor type 1; assay: Antagonist activity at OX1R (unknown origin)
Orexin receptor type 2 [4] = molecular target: T2, Orexin receptor type 2; assay: Antagonist activity at OX2R (unknown origin)
[5] = molecular target: T1, Orexin/Hypocretin receptor type 1; assay: Antagonist activity at human OX1R expressed in CHO cells assessed as inhibition of orexin-A-induced intracellular calcium release by FLIPR assay; format: functional, cell-based
Orexin receptor type 2 [6] = molecular target: T2, Orexin receptor type 2; assay: Antagonist activity at human OX2R expressed in CHO cells assessed as inhibition of orexin-A-induced intracellular calcium release by FLIPR assay; format: functional, cell-based
Cytochrome P450 3A4 = Cytochrome P450 3A4 (Homo sapiens, UniProt P08684); assay: Inhibition of CYP3A4 (unknown origin); format: ADME
Cytochrome P450 3A4, sequence (P08684 whole entry): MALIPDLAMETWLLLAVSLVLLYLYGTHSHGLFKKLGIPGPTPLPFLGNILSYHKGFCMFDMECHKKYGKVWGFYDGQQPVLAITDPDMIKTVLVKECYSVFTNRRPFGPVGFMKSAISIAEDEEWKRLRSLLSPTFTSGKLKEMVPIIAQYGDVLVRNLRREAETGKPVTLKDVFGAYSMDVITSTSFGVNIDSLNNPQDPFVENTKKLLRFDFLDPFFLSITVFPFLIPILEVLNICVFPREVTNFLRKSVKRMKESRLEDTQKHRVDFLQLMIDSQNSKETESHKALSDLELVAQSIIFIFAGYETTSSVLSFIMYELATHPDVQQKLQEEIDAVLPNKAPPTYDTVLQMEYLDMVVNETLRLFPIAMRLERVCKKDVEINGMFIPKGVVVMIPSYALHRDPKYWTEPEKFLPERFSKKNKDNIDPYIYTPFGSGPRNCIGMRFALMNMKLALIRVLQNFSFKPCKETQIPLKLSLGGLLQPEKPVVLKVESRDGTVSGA

SMILES: CSc1cccc(NC(=O)[C@@H]2CCCN2S(=O)(=O)c2ccc(Br)s2)c1
IC50 [5]: 21 nM

SMILES: COc1ccc(S(=O)(=O)N2CCC[C@H]2C(=O)Nc2cccc(SC)c2)cc1
IC50 [5]: 31 nM | IC50 (Orexin receptor type 2 [6]): 7 nM | IC50 (Cytochrome P450 3A4): 8000 nM

SMILES: CCN(CCN(C)c1nc2ccccc2o1)C(=O)c1cc(C)ccc1-n1nccn1
IC50 (Orexin receptor type 2 [4]): 18 nM | IC50 [3]: 13 nM

SMILES: Cc1nc(C(=O)N2CCCCC2CCOc2ccc(F)cc2)c(-c2ccccc2)s1 (stereo not given)
Ki [1]: 8 nM | Ki (Orexin receptor type 2 [2]): 4 nM

SMILES: COc1ccc(CC2c3cc(OC(C)C)c(OC)cc3CCN2CC(=O)NCc2ccccc2)cc1OC (stereo not given)
IC50 (Orexin receptor type 2 [4]): > 10000 nM | IC50 [3]: 17 nM

The remaining lines, values ahead:

Ki [1]: 15 nM | Ki (Orexin receptor type 2 [2]): 16 nM
SMILES: Cc1ccc(-n2nccn2)c(C(=O)N2CCCC(COc3ccc(F)c(C)c3)C2)c1 (stereo not given)

IC50 [3]: 630 nM
SMILES: COc1cccc(OC)c1C(=O)N1CCCN(c2nc3ccc(Cl)cc3s2)CC1

IC50 (Orexin receptor type 2 [4]): 14 nM | IC50 [3]: 12 nM
SMILES: Cc1nc(C(=O)N2CCCC[C@H]2CCOc2ccc(F)cc2)c(-c2ccccc2)s1
